Laboratory results taken from patent US20170198005A1, “2'-DICHLORO AND 2'-FLUORO-2'-CHLORO NUCLEOSIDE ANALOGUES FOR HCV INFECTION” (IDENIX PHARMACEUTICALS LLC, priority 2013, published 2017).
Where two headings read alike, the source gives them in different places.

Assays:
HCV genotype 1b replicon = experiment: HCV replicon assay (luciferase reporter); type: cell-based; conditions: Zluc cells, 72 hours of incubation
Experimental: Huh-7-derived cell line (Zluc) that harbors an HCV genotype 1b replicon and a luciferase reporter gene was grown in Dulbecco's Modified Eagle Medium (DMEM) supplemented with 10% fetal bovine serum, 2 mM GlutaMAX, 1% MEM nonessential amino acids, 100 IU/mL penicillin, 100 μg/mL streptomycin, and 0.5 mg/mL Geneticin® (G418). For dose response testing the cells were seeded in 96-well plates at 7.5×10^3 cells per well in a volume of 50 μL, and incubated at 37° C./5% CO2. Drug solutions were made up freshly in Huh-7 media as 2× stocks. Ten additional 5-fold dilutions were prepared from these stocks in DMEM without G418. At least three hours after Zluc cells were seeded, drug treatment was initiated by adding 50 μL of drug dilutions to the plates in duplicate. Final concentrations of drug ranged from 100 μM to 0.0000512 μM. Cells were then incubated at 37° C./5% CO2. […] After 72 hours of incubation, the inhibition of HCV replication was measured by quantification of photons emitted after mono-oxygenation of 5′-fluoroluciferin to oxyfluoroluciferin by firefly luciferase. For this, media was removed from the plates via gentle tapping. Fifty microliters of ONE-glo luciferase assay reagent was added to each well. The plates were shaken gently for 3 min at room temperature and luminescence was measured on a Victor^3 V 1420 multilabel counter (Perkin Elmer) with a 1 second read time using a 700 nm cut-off filter. The EC50 values were calculated from dose response curves from the resulting best-fit equations determined by Microsoft Excel and XLfit 5.2 software.
Compounds presented in Table 1 below were assayed according to the replicon assay described herein.

[1] = Cytotoxicity evaluation, CellTiter-Blue Cell Viability Assay; type: cell-based; conditions: human
Experimental: (§1) For cytotoxicity evaluation, Zluc cells were treated with compound as described herein, and cell viability was monitored using the CellTiter-Blue Cell Viability Assay (Promega) by adding 20 μL of the assay solution to each well. The plates were then incubated at 37° C./5% CO2 for at least 3 hours. Fluorescence was detected in plates using excitation and emission wavelengths of 531 and 595 nm, respectively, in a Victor^3 V 1420 multilabel counter (Perkin Elmer) and CC50 values were determined using Microsoft Excel and XLfit 5.2 software.

[2] = tested on: Zluc cells (Huh-7-derived cell line); experiment: as above; type: cell-based; conditions: read-out: HCV Replicon CC50
Experimental: as §1

[3] = Pharmacokinetics of liver triphosphate following a single oral dose in CD-1 mice; type: in vivo; conditions: CD-1 male mice, single oral dose 10 mg/kg in PEG 200, liver triphosphate at 4, 12 and 24 hours, AUC given at 1 μmol/kg
Experimental: A single oral dose of test compound at 10 mg/kg in PEG 200 (dose volume 5 mL/kg) was administered to nine CD-1 male mice. Five untreated animals were used for the collection of control plasma and liver. Terminal plasma and liver samples were collected from three animals per time point at 4, 12 and 24 hours post dose. Liver specimens were collected from all animals immediately after the incision. Freezing forceps stored in liquid nitrogen were used to freeze the liver before excision.
Liver samples were analyzed for the active species nucleoside triphosphate by LC-MS/MS. The triphosphate levels were assayed by homogenizing (on ice) a known weight of mouse liver with 4× volume of 0.95 M trichloroacetic acid (TCA). Internal standard solution was added to the homogenate followed by neutralization with 20% ammonium hydroxide solution and addition of 500 μL 1% formic acid. The tissue samples were extracted by weak anion exchange solid phase extraction (SPE). Post extraction, the eluates were evaporated under nitrogen, followed by reconstitution before injection onto the LC-MS/MS system. […] The analyte was detected and quantified by tandem mass spectrometry in positive ion mode on an API4000 equipped with a Turbo Ionspray® interface.

[4] = target: T1, wild-type HCV genotype 1b NS5B protein (HCV polymerase) (Hepatitis C virus genotype 1b, UniProt Q9WMX2); experiment: HCV polymerase enzyme assay, wild-type; type: biochemical
T1 construct: HCV genotype 1b NS5B protein were used to generate recombinant HCV polymerases (with a deletion of the 21 carboxy terminal amino acids); made in house
From the text: (§2) Test compounds in the form of nucleoside triphosphates were examined for inhibitory activity against purified HCV polymerase in a standard assay. Bacterial expression constructs encoding the approximately 65 kDa HCV genotype 1b NS5B protein were used to generate recombinant HCV polymerases (with a deletion of the 21 carboxy terminal amino acids). Both the wild-type genotype 1b protein and protein containing the S282T mutation were expressed and purified for use in the enzymatic activity assay.
(§3) The enzymatic activity assay measured the inhibitory effect of increasing concentrations of test compound on the incorporation of α-[^33P]-labeled nucleotide into trichloroacetic acid-precipitable material. Recombinant polymerase and synthetic RNA template were combined in reaction buffer containing ribonucleoside triphosphates, α-[^33P]-labeled nucleotide and eight concentrations of test compound in three-fold dilutions. Reactions were incubated for two hours at 30° C.
(§4) Reactions were terminated by the addition of ice-cold trichloroacetic acid and sodium pyrophosphate to promote precipitation of newly-synthesized ribonucleic acid. Precipitable material from the reactions was collected by filtration onto 96-well filter plates, washed extensively with water, and quantified by liquid scintillation.
(§5) The inhibitory activity of test compounds was determined by fitting results to dose-response curves using XLfit software.

[5] = target: T2, HCV genotype 1b NS5B protein containing the S282T mutation (Hepatitis C virus genotype 1b, UniProt Q9WMX2, S2701T); experiment: HCV polymerase enzyme assay, S282T mutant; type: biochemical
T2 construct: HCV genotype 1b NS5B protein were used to generate recombinant HCV polymerases (with a deletion of the 21 carboxy terminal amino acids); made in house
From the text: as §2, §3, §4, §5

[6] = Zluc cells (Huh-7-derived HCV replicon cell line)
[7] = Zluc cells, read-out: HCV Replicon CC50

| SMILES | EC50 (HCV genotype 1b replicon; Hepatitis C virus, 72 h) | CC50 [1, 6] | other results |
| --- | --- | --- | --- |
| CC(C)OC(=O)[C@H](C)N[P@](=O)(OCCSC(=O)C(C)(C)C)OC[C@H]1O[C@@H](n2ccc(N)nc2=O)[C@@](F)(Cl)[C@@H]1O (mixture of isomers) [102b (Diast. Mix)] | > 10 µM | > 50 µM | – |
| CC(C)OC(=O)[C@@H](C)NP(=O)(OC[C@H]1C[C@@H](n2ccc(N)nc2=O)C(Cl)(Cl)[C@@H]1O)Oc1ccccc1 (mixture of isomers) [103a (Diast. Mix)] | 1 to 10 µM | – | CC50 [1, 7]: > 50 µM |
| CC(C)OC(=O)[C@@H](C)NP(=O)(OC[C@H]1O[C@@H](n2cnc3c(=O)[nH]c(N)nc32)[C@@](F)(Cl)[C@@H]1O)Oc1ccccc1 (mixture of isomers) [147a (Diast. Mix)] | > 10 µM | – | CC50 [1, 7]: > 50 µM |
| CC(C)OC(=O)[C@H](C)N[P@](=O)(OCCSC(=O)C(C)(C)C)OC[C@H]1O[C@@H](n2ccc(N)nc2=O)C(Cl)(Cl)[C@@H]1O (single isomer, unassigned) [101b (Diast. 1)] | 1 to 10 µM | > 50 µM | – |
| CC(C)OC(=O)[C@H](C)N[P@](=O)(OCCSC(=O)C(C)(C)C)OC[C@H]1O[C@@H](n2ccc(N)nc2=O)C(Cl)(Cl)[C@@H]1O (single isomer, unassigned) [101b (Diast. 2)] | – | – | EC50 (HCV genotype 1b replicon): 1 to 10 µM; CC50 [2]: > 50 µM |
| CC(C)OC(=O)[C@H](C)N[P@](=O)(OCCSC(=O)C(C)(C)C)OC[C@H]1O[C@@H](n2ccc(N)nc2=O)[C@@](F)(Cl)[C@@H]1O (single isomer, unassigned) [102b (Diast. 1)] | > 10 µM | > 50 µM | – |
| CC(C)OC(=O)[C@H](C)N[P@](=O)(OCCSC(=O)C(C)(C)C)OC[C@H]1O[C@@H](n2ccc(N)nc2=O)[C@@](F)(Cl)[C@@H]1O (single isomer, unassigned) [102b (Diast. 2)] | – | – | EC50 (HCV genotype 1b replicon): > 10 µM; CC50 [2]: > 50 µM |
| CC(C)OC(=O)[C@@H](C)NP(=O)(OC[C@H]1C[C@@H](n2ccc(N)nc2=O)C(Cl)(Cl)[C@@H]1O)Oc1ccccc1 (single isomer, unassigned) [103a (Diast. 1)] | > 10 µM | – | CC50 [1, 7]: > 50 µM |
| CC(C)OC(=O)[C@@H](C)NP(=O)(OC[C@H]1C[C@@H](n2ccc(N)nc2=O)C(Cl)(Cl)[C@@H]1O)Oc1ccccc1 (single isomer, unassigned) [103a (Diast. 2)] | – | – | EC50 (HCV genotype 1b replicon): > 10 µM |
| CC(C)OP1(=O)OC[C@H]2O[C@@H](n3ccc(N)nc3=O)C(Cl)(Cl)[C@@H]2O1 (single isomer, unassigned) [104 (Diast. 1)] | – | > 50 µM | EC50 (HCV genotype 1b replicon): 1 to 10 µM; Ms Liver TP AUC ([3]; listed as 104 Diast. 1, 10 mg/kg): ++++ (2000 < ++++) |
| CC(C)OP1(=O)OC[C@H]2O[C@@H](n3ccc(N)nc3=O)C(Cl)(Cl)[C@@H]2O1 (single isomer, unassigned) [104 (Diast. 2)] | – | – | EC50 (HCV genotype 1b replicon): > 10 µM; CC50 [2]: > 50 µM; Ms Liver TP AUC ([3]; listed as 104 Diast. 2, 10 mg/kg): +++ (+++ ≦ 2000) |
| CC(C)OC(=O)[C@H](C)NP(=O)(OCCSC(=O)C(C)(C)C)OC[C@H]1O[C@@H](n2cnc3c(N)ncnc32)C(Cl)(Cl)[C@@H]1O (single isomer, unassigned) [117b (Diast. 1)] | 0.25 to 1 µM | ≤ 50 µM | – |
| CC(C)OC(=O)[C@H](C)NP(=O)(OCCSC(=O)C(C)(C)C)OC[C@H]1O[C@@H](n2cnc3c(N)ncnc32)C(Cl)(Cl)[C@@H]1O (single isomer, unassigned) [117b (Diast. 2)] | – | – | EC50 (HCV genotype 1b replicon): 0.25 to 1 µM; CC50 [2]: ≤ 50 µM |
| Nc1ccn([C@@H]2O[C@H](CO)[C@@H](O)C2(Cl)Cl)c(=O)n1 [Compound 1001] | > 10 µM | > 50 µM | – |
| O=c1ccn([C@@H]2O[C@H](CO)[C@@H](O)C2(Cl)Cl)c(=O)[nH]1 [Compound 1002] | > 10 µM | > 50 µM | – |
| Nc1ccn([C@@H]2O[C@H](CO)[C@@H](O)[C@]2(F)Cl)c(=O)n1 [Compound 1004] | 1 to 10 µM | > 50 µM | – |
| Nc1nc2c(ncn2[C@@H]2O[C@H](CO)[C@@H](O)[C@]2(F)Cl)c(=O)[nH]1 [Compound 1005] | > 10 µM | > 50 µM | – |
| O=c1ccn([C@@H]2O[C@H](CO)[C@@H](O)[C@]2(F)Cl)c(=O)[nH]1 [Compound 1006] | > 10 µM | > 50 µM | – |
| O=c1ccn([C@@H]2O[C@H](CO)[C@@H](O)[C@@]2(F)Cl)c(=O)[nH]1 [Compound 1007] | > 10 µM | > 50 µM | – |
| Nc1ncnc2c1ncn2[C@@H]1O[C@H](CO)[C@@H](O)C1(Cl)Cl [Compound 1011] | > 10 µM | > 50 µM | – |
| Nc1ccn([C@@H]2O[C@H](COP(=O)(O)OP(=O)(O)OP(=O)(O)O)[C@@H](O)C2(Cl)Cl)c(=O)n1 [Compound 2001] | – | – | IC50 [4]: < 0.25 µM; IC50 [5]: 0.25 to 1 µM |
| O=c1ccn([C@@H]2O[C@H](COP(=O)(O)OP(=O)(O)OP(=O)(O)O)[C@@H](O)C2(Cl)Cl)c(=O)[nH]1 [Compound 2002] | – | – | IC50 [4]: < 0.25 µM; IC50 [5]: 1 to 10 µM |
| Nc1nc2c(ncn2[C@@H]2O[C@H](COP(=O)(O)OP(=O)(O)OP(=O)(O)O)[C@@H](O)[C@]2(F)Cl)c(=O)[nH]1 [Compound 2003] | – | – | IC50 [4]: < 0.25 µM; IC50 [5]: < 0.25 µM |
| O=c1ccn([C@@H]2O[C@H](COP(=O)(O)OP(=O)(O)OP(=O)(O)O)[C@@H](O)[C@]2(F)Cl)c(=O)[nH]1 [Compound 2004] | – | – | IC50 [4]: < 0.25 µM; IC50 [5]: 1 to 10 µM |
| O=c1ccn([C@@H]2O[C@H](COP(=O)(O)OP(=O)(O)OP(=O)(O)O)[C@@H](O)[C@@]2(F)Cl)c(=O)[nH]1 [Compound 2005] | – | – | IC50 [4]: < 0.25 µM; IC50 [5]: 1 to 10 µM |
| Nc1ncnc2c1ncn2[C@@H]1O[C@H](COP(=O)(O)OP(=O)(O)OP(=O)(O)O)[C@@H](O)C1(Cl)Cl [Compound 2011] | – | – | IC50 [4]: 0.25 to 1 µM |
